pEC50: −log10 of the molar value. Bridge positions count the residues as written; N and C are the ends. Ends that are not written are not given here.
Columns and labels:
Assay type in all cases: cell-based
[1] = system: human naive CD4+ T-cells; assay: pSTAT5 ELISA in isolated naive CD4+ T-cells; details: for pEC50: rested naive CD4+ T-cells, 15 min exposure, pSTAT5 ELISA
Method: (§1) We first assessed induction kinetics over a time course of compound exposure. Saturating concentrations of each of the compounds, previously determined to elicit maximum response of pSTAT5 signaling, were applied to the cells and pSTAT5 levels monitored for up to 2 hours. The resulting time-response profiles served to compare the kinetics of signal induction for the different compounds, and to determine Tmax for correct time of exposure in subsequent dose response determinations for each compound. In these studies, IL-7-induced pSTAT5 accumulation rose rapidly to a maximum by 15 to 30 minutes, then declined slowly for the remainder of the time course.
(§2) Naive CD4+ and CD8+ T-cells, were separately isolated by negative selection from PBMCs, and rested overnight prior to compound exposure.
(§3) For preparation of lymphocyte subsets, naïve CD4+ T-cells were isolated via two-stage negative selection with EasySep™ Human Naïve CD4+ T-Cell Isolation Kit II (Stemcell Technologies Cat# 17555); and CD8+ T-cells were isolated by negative selection from PBMCs with Stem Cell Technology Easy Sep CD8+ kit, or obtained freshly prepared from Stanford Blood Center. Rested naïve CD4+ T-cells or CD8+ T-cells were prepared by overnight incubation at 37°C, 5% CO2 in CTS™ OpTmizer™ T-Cell Expansion SFM (ThermoFisher Scientific Cat# A1048501).
(§4) Cells were deprived of growth factors by overnight incubation at 5×10^5 cells/mL in starvation medium (RPMI 1640 + 4.5 g/L glucose + 0.2% FBS + 2 mM L-glutamine + 1 mM NaPyr + 10 mM HEPES + 0.5x penicillin-streptomycin with no cytokine supplement) in T75 flasks. For assays, cells were plated in 96-well V-bottom plates at 2×10^5 cells/well. […] Following incubation, cell extracts were prepared by adding a mixture of 10x Cell Lysis Buffer (Cell Signaling Technology Cat# 9803) and 100x HALT Phosphatase and Protease Inhibitor Cocktail (Thermo Fisher Cat# 78442) directly to the wells. The plates were agitated at 25°C for 5 min to prepare cell extracts for immediate use or to be stored at -80°C until assay. […]

[2] = system: human naive CD8+ T-cells; assay: pSTAT5 ELISA in isolated naive CD8+ T-cells; details: for pEC50: rested naive CD8+ T-cells, 15 min exposure, pSTAT5 ELISA
Method: as §1, §2, §3, §4

[3] = system: rested human CD8+ T-cells; assay: IL-7Rα (CD127) internalization assay
Method: In previous studies, the decline of IL-7Rα on the surface of IL-7-treated CD8+ cells was reported to proceed with approximately linear kinetics, reaching ~80% disappearance of receptor over 6 hours at 37°C [49]. […] Surface IL-7R was pre-loaded with saturating concentrations of the agonists on ice and shifted to 37°C to allow internalization, then shifted back to ice to stop internalization. […] A parallel assay with all incubations held on ice for the duration of the time course was also run.
Fig 8 Test compounds induce decrease in cell surface IL-7Rα. […] Following timed incubations, the samples were stained, fixed, and analyzed by flow cytometry; and data was collected as median fluorescence intensity (MFI), as detailed in Methods. […] The primary flow data (MFI) is shown in S3 Fig.
CD8+ cells isolated by negative selection from PBMCs with Stem Cell Technology Easy Sep CD8+ kit, or obtained freshly prepared from Stanford Blood Center, were rested overnight in RPMI 1640 containing Pen/Strep, L-Glutamine and 20% FBS; then resuspended to 7.0 x10^6 cells/mL. […] To determine levels of cell surface IL-7Rα, analysis was performed by flow cytometry to determine median fluorescence intensity (MFI) of cells at each condition. […]

pEC50 [1]	pEC50 [2]	Substance	agonist efficacy, CD4+ ([1]; dose response at 15 min)	agonist efficacy, CD8+ ([2]; dose response at 15 min)	rate of surface decline of IL-7Rα ([3]; 1 μM, 37°C)	loss of IL-7Rα surface density ([3]; 6 hours at 37°C, 10 nM IL-7) [%]
8.89	9.46	Ac-GWGIPWCTLDPGSLQCAWLGKHGGGGSGGVVCQDWEGVELCWQGG (disulfide 7-16, 32-41) [MDK1472]	full agonists	full agonists	tracked very closely with that induced by IL-7	–
11.60	11.55	IL-7: human IL-7 cytokine (Peprotech)	–	–	–	60

— article PMC10597491 (PLOS ONE, 2023)
